Data on 11 compounds can be found in patent US20140148446A1, “COMPOUNDS THAT ENABLE ALTERNATIVE MITOCHONDRIAL ELECTRON TRANSFER” (University of North Texas Health Science Center, priority 2010, published 2014).

In assay [1] the test system is HT-22 cells. As to the kind of experiment: Protection against cell death (cell viability) induced by glutamate in HT-22 cells. The class given is cell-based. The settings on record: for Potency and efficacy of the protective action on cell viability (FIG. 10): glutamate toxicity, compared with methylene blue.
Procedure: HT-22 cells (gift from Dr. David Schubert, Salk Institute, San Diego, Calif.) were plated at 4,000 cells per well in 96 well plates and cultured over night. […] At the end of the 24 hours, the medium was removed and the plates were rinsed with PBS and incubated with 10 μM calcein-AM (Invitrogen, Carlsbad, Calif.) in PBS for 20 minutes. […] Cell culture wells treated with bleach before rinsing were used as blank.
For assay [2], the system named is HT-22 cells. Put plainly: Protection against mitochondrial membrane potential collapse induced by glutamate in HT-22 cells. The settings on record: for Potency and efficacy of the protective action on mitochondrial membrane potential collapse (FIG. 12): compared with methylene blue. The class given is cell-based.
Assay [3] has as its system HT-22 cells. As to the kind of experiment: Protection against ROS production induced by glutamate in HT-22 cells. The class given is cell-based. The conditions noted are these: for Potency and efficacy of the protective action on reactive oxygen species production (FIG. 11): compared with methylene blue.
Assay [4] has as its system mitochondrial complex I-III. The class given is biochemical, rat. The settings on record: for Inhibition of complex I-III activity: inhibitor alone. How it is done: (§1) Fresh rat heart was removed and placed in ice-cold mitochondrial isolation buffer containing 210 mM mannitol, 70 mM sucrose, 5 mM HEPES, and 1 mM EDTA, pH 7. The heart was homogenized immediately, and the mitochondrial fraction was isolated by differential centrifugation as described previously (Trounce et al., 1996). Mitochondria were stored at −80° C. until subsequent analysis.
(§2) All mitochondrial activity assays were performed according to previous publications with minimal modifications for complex I (Lenaz et al., 2004), complex I-III, complex II, complex III, and II-III (Trounce et al., 1996). […] Complex I activity was monitored by adding NADH to the mix with or without rotenone/antimycin A. The final data were normalized to blank values at time zero. The reaction was monitored in a kinetic spectrophotometer at 340 nm. Complex I activity was measured in arbitrary units and normalized to control levels for statistical analysis. Isolated mitochondria equivalent to 40-200 μg mitochondrial protein was used for each assay, except for assays with inhibitors, when larger amount of mitochondria (3 to 5 folds) were used to ensure that inhibition was distinguishable. Final data were normalized to control levels. For complex I-III activity, the reaction was initiated with the addition of NADH, cyt c was used as final substrate and its reduction was monitored at 550 nm. For assay of complex II-III activity, succinate was added instead of NADH, and the electron transfer to cyt c was performed according to previous publications (Atamna et al., 2008). To test whether the electrons from the reduced form of MB (MBH2) can be transferred to cyt c in mitochondrial lysate, we added 10 μM 2,7-dichlorofluorescin (DCFH, Invitrogen, Carlsbad, Calif.) to the reaction system. Free radicals convert non-fluorescent DCFH to highly fluorescent DCF (Ex, 488 nm, and Em, 530 nm). In the presence of cyt c, which accepts electrons from MBH2, conversion of DCFH to DCF is decreased.

In the next assay the test system is mitochondrial complex I. Put plainly: Mitochondrial complex I activity assay (NADH dehydrogenase). The class given is biochemical, rat. How it is done:
as §1, §2

For assay [5], the system named is mitochondrial complex II-III. Put plainly: Mitochondrial complex II-III activity in extracted mitochondria. It counts as biochemical, rat. The settings on record: inhibitor alone. Here is the method: as §1
All mitochondrial activity assays were performed according to previous publications with minimal modifications for complex I (Lenaz et al., 2004), complex I-III, complex II, complex III, and II-III (Trounce et al., 1996). […] Complex I activity was monitored by adding NADH to the mix with or without rotenone/antimycin A. The final data were normalized to blank values at time zero. The reaction was monitored in a kinetic spectrophotometer at 340 nm. Complex I activity was measured in arbitrary units and normalized to control levels for statistical analysis. Isolated mitochondria equivalent to 40-200 μg mitochondrial protein was used for each assay, except for assays with inhibitors, when larger amount of mitochondria (3 to 5 folds) were used to ensure that inhibition was distinguishable. Final data were normalized to control levels. For complex I-III activity, the reaction was initiated with the addition of NADH, cyt c was used as final substrate and its reduction was monitored at 550 nm. […]

Where [6] appears, read: Mus musculus, glutamate, HT-22 cells, read-out: Protection against cell death (EC50).
Setting [7] is: glutamate, HT-22 cells, read-out: Protection against cell death (EC50).

As for `Clc1ccc2c(c1)Nc1ccccc1S2` [2-chlorophenothiazine], the results for the EC50 in the assay on HT-22 cells [1] (setting [6]), in the assay with HT-22 cells [2] (Mus musculus) and in the assay on HT-22 cells [3] (Mus musculus) were 4.57 nM, 45.1 nM and 84.1 nM, respectively.

For `CC(=O)N1c2ccc(N(C)C)cc2Sc2cc(N(C)C)ccc21` [Acetyl-MB, acetyl-methylene blue], in assay [4] (redox center disabled by N-acetylation), the “Ability to enhance electron transfer between complex I and III” value is recorded as “completely lost its ability to enhance electron transfer”.

For the compound `C1=Cc2ccccc2Nc2ccccc21` [Iminostilbene], the EC50 stood at 189 nM in the assay with HT-22 cells [1] (setting [6]), 61.7 nM in the assay with HT-22 cells [2] (Mus musculus) and 484 nM in the assay on HT-22 cells [3] (Mus musculus).

As for `CN(C)CCCN1c2ccccc2Sc2ccc(Cl)cc21` [chlorpromazine], the EC50 in the assay on HT-22 cells [1] (setting [6]) was 2190 nM; in the assay on HT-22 cells [2] (Mus musculus), 3270 nM; in the assay with HT-22 cells [3] (Mus musculus) it was 2150 nM. The “Potency and efficacy of the protective action on cell viability (FIG. 10)” value (“Potency and efficacy … (FIG. 10)” for short) in the assay with HT-22 cells [1] (HT-22 cells) was “significantly decreases the potency and efficacy”. In addition, the “Potency and efficacy of the protective action on mitochondrial membrane potential collapse (FIG. 12)” value (“Potency and efficacy … (FIG. 12)” for short) in the assay with HT-22 cells [2] is “significantly decrease the potency and efficacy”. The “Potency and efficacy of the protective action on reactive oxygen species production (FIG. 11)” value (“Potency and efficacy … (FIG. 11)” below) in the assay on HT-22 cells [3] is “significantly decrease the potency and efficacy”.

In the case of `CN(C)CCCN1c2ccccc2CCc2ccccc21` [impramine], the concentration giving a half-maximal response (EC50) in the assay on HT-22 cells [1] (setting [6]) came out at 51900 nM; in the assay with HT-22 cells [2] (Mus musculus), 29100 nM; with HT-22 cells [3] (Mus musculus) it was 84600 nM. In addition, the “Potency and efficacy … (FIG. 10)” value with HT-22 cells [1] (HT-22 cells) was “significantly decreases the potency and efficacy”. Further, in the assay on HT-22 cells [2], the “Potency and efficacy … (FIG. 12)” value is “significantly decrease the potency and efficacy”. The “Potency and efficacy … (FIG. 11)” value with HT-22 cells [3] is “significantly decrease the potency and efficacy”.

`Cc1cc2nc3ccc(N(C)C)cc3nc2cc1N.Cl` [neutral red]: the “Potency and efficacy … (FIG. 10)” value in the assay on HT-22 cells [1] (HT-22 cells) is “significantly decrease the potency and efficacy”. In the assay with HT-22 cells [1] (setting [7]), the EC50 was determined as 5840 nM. Further, in the assay on HT-22 cells [2], the EC50 was 8960 nM; the “Potency and efficacy … (FIG. 12)” value is “significantly decrease the potency and efficacy”. Moreover, in the assay on HT-22 cells [3], the concentration giving a half-maximal response (EC50) is 15800 nM; the “Potency and efficacy … (FIG. 11)” value is “significantly decrease the potency and efficacy”.

On to `c1ccc2c(c1)Nc1ccccc1S2` [phenothiazine], for which the EC50 amounted to 19 nM in the assay on HT-22 cells [1] (Mus musculus, HT-22, read-out: Protection against cell death (EC50)); 21.2 nM in the assay with HT-22 cells [2] (Mus musculus); 57.2 nM in the assay with HT-22 cells [3] (Mus musculus).

With `CC(CN1c2ccccc2Sc2ccccc21)N(C)C` (stereo not drawn) [promethazine], the EC50 in the assay with HT-22 cells [1] (setting [6]) is 2060 nM; in the assay on HT-22 cells [2] (Mus musculus) it was 214 nM; in the assay on HT-22 cells [3] (Mus musculus) it was 9690 nM. For the same compound, the “Potency and efficacy … (FIG. 10)” value in the assay on HT-22 cells [1] (HT-22 cells) was “significantly decreases the potency and efficacy”. Moreover, the “Potency and efficacy … (FIG. 12)” value in the assay on HT-22 cells [2] was “significantly decrease the potency and efficacy”. Moreover, the “Potency and efficacy … (FIG. 11)” value in the assay on HT-22 cells [3] was “significantly decrease the potency and efficacy”.

As for `C=C(C)[C@H]1Cc2c(ccc3c2O[C@@H]2COc4cc(OC)c(OC)cc4[C@@H]2C3=O)O1` [rotenone], the “Inhibition of complex I activity” value is on record as “above 95%” in the assay on mitochondrial complex I (CoQ1 as substrate) and 26.7% with mitochondrial complex I (MB as substrate, maximum rotenone concentrations). Further, the “Inhibition of complex I-III activity” value in assay [4] was found to be 90%.

For `Cc1cc2nc3ccc(N(C)C)cc3[s+]c2cc1N` [toluidine blue], the EC50 in the assay with HT-22 cells [1] (setting [7]) is 1.75 nM; in the assay with HT-22 cells [2], 1.54 nM; in the assay on HT-22 cells [3], 0.106 nM.

As for antimycin A, the “Inhibition of complex II-III activity” value in assay [5] stood at 80%. The “Inhibition of complex I-III activity” value in assay [4] amounted to 70%.
